Read-outs that look alike come from different tables or passages of the source.
Tests used:
Aurora A [1] = molecular target: T1, Aurora A (Homo sapiens, UniProt O14965); experiment: Aurora A enzymatic activity test, FAM-labeled peptide, Caliper; type: biochemical; conditions: FAM-labeled peptide substrate, read-out: Kinase-inhibiting activity IC50 Aurora A
T1 sequence (O14965 1-403): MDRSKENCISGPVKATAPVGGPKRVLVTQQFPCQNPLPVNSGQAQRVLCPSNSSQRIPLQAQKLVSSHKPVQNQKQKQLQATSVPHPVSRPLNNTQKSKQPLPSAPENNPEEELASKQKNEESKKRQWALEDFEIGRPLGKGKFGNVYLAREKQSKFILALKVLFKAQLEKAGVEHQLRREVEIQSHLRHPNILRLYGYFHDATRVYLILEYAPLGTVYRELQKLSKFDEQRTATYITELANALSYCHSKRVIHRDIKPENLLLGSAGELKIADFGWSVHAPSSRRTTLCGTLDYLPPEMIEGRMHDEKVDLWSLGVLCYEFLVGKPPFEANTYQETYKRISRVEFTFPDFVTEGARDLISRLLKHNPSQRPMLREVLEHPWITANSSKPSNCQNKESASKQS
Procedure: (§1) Test samples: Compounds in the present invention (the sequence numbers and structures thereof are shown in Table 1), dilution concentration: 0.03 μM-3 μM, a total of 10 concentration gradients.
(§2) Test method: enzymatic activity tests of Aurora kinase (including Aurora A and Aurora B) and VEGFR2 (KDR) were performed using a multi-function microplate reader.
(§3) a) 96-well plates, 10 dose groups, 3-fold serial dilutions, each well was added with DMSO, maximal concentration of 500 μM (50-fold compound).
(§4) b) 384-well plates, diluted with 1× kinase buffer (50 mM HEPES, pH 7.5; 0.0015% Brij-35; 2 mM DTT), each well containing 5× compound dissolved in 5 μL of 10% DMSO. Each well of the negative control contains 5 μL of 1× kinase buffer containing 10% DMSO.
(§5) Aurora A, Aurora B and KDR were dissolved in 1× kinase buffer and prepared as a 2.5× enzyme solution. After the compound in various concentrations was reacted with 2.5× enzyme solution at room temperature for 10 min, the FAM-labeled peptide substrate and ATP were added to initiate reaction. After incubation for 40 minutes, 25 μL of terminal solution (100 mM HEPES, pH 7.5; 0.015% Brij-35; 0.2% Coating Reagent #3; 50 mM EDTA) was added to stop the reaction, and the final data were read by Caliper.

Aurora B [2] = molecular target: T2, Aurora B (Homo sapiens, UniProt Q96GD4); experiment: Aurora B enzymatic activity test, FAM-labeled peptide, Caliper; type: biochemical; conditions: FAM-labeled peptide substrate, read-out: Kinase-inhibiting activity IC50 Aurora B
T2 sequence (Q96GD4 whole entry): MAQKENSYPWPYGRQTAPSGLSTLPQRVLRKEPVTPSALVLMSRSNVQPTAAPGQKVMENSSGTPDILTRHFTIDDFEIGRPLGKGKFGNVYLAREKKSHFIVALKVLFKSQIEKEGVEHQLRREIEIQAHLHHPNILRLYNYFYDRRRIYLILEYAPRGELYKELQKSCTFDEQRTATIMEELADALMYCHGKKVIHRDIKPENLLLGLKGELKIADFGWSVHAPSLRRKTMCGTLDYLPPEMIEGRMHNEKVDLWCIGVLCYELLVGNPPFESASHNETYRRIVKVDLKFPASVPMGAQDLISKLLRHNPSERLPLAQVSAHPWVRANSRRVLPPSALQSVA
Procedure: as §1, §2, §3, §4, §5

KDR(VEGFR2) [3] = molecular target: T3, KDR(VEGFR2) (Homo sapiens, UniProt P35968); experiment: KDR enzymatic activity test, FAM-labeled peptide, Caliper; type: biochemical; conditions: FAM-labeled peptide substrate, read-out: Kinase-inhibiting activity IC50 KDR(VEGFR2)
T3 sequence (P35968 20-1356): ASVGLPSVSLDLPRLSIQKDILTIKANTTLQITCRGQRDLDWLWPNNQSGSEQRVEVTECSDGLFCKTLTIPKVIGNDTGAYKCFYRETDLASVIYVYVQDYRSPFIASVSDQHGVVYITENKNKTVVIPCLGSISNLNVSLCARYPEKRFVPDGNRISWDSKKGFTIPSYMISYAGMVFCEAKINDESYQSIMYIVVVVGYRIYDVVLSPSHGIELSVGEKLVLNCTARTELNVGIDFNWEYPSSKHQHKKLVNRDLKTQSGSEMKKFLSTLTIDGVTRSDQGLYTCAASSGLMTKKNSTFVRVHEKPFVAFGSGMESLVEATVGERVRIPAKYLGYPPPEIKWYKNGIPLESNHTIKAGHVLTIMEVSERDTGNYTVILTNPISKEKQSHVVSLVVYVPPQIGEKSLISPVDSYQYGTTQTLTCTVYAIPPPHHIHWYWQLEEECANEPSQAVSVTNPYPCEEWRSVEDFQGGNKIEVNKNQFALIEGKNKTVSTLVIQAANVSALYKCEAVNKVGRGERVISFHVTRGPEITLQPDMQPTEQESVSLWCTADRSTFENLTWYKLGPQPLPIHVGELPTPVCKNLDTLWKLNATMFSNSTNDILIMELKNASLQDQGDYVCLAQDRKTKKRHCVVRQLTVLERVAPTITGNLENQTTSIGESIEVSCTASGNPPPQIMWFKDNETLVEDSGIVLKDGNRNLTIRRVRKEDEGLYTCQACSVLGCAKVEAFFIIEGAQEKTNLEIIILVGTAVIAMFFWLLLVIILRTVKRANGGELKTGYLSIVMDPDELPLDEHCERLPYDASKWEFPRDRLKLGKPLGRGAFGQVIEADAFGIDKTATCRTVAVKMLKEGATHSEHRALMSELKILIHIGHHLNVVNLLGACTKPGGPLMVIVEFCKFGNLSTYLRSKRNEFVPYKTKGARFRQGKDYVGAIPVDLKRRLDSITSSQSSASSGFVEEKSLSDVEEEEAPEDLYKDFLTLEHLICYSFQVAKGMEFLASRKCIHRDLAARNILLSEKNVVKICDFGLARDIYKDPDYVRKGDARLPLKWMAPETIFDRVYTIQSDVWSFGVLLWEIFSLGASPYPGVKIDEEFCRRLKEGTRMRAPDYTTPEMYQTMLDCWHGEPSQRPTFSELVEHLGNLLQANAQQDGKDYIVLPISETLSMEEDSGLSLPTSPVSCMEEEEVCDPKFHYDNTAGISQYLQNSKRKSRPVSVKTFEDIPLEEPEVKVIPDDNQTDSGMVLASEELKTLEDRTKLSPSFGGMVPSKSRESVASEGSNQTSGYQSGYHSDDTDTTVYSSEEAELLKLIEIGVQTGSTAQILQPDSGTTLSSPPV
Procedure: as §1, §2, §3, §4, §5

Aurora A [4] = molecular target: T1, Aurora A; experiment: Aurora A kinase activity test, [γ-33P]-ATP filter membrane; type: biochemical; conditions: 40 minutes at room temperature, read-out: Kinase-inhibiting activity IC50 Aurora A
Procedure: (§6) Test samples: compounds 1 to 4 in the present invention (the sequence numbers and structures thereof are shown in Table 1), dilution concentration: 0.03 μM-3 μM, a total of 10 concentration gradients.
as §2
(1) Test for Aurora a Kinase Activity:
Aurora A kinase protein and the compounds were sequentially added to the following reaction system: 8 mM MOPS pH 7.0, 0.2 mM EDTA, 200 μM LRRASLG (Kemptide), 10 mM magnesium acetate and [γ-^33P]-ATP (radioactive activity was approximately 500 cpm/pmol). Then the above reaction system was added with ATP to start the reaction, and incubated at room temperature for 40 minutes. Then the reaction was terminated by adding a 3% phosphoric acid solution. 10 μL was taken out from the reaction system, and then added dropwise to a P30 filtermat filter membrane, washed three times in 75 mM phosphoric acid solution for 5 minutes, and then washed once with methanol. After the filter membrane was dried, count was performed by a liquid crystal scintillation counter.

Aurora B [5] = molecular target: T2, Aurora B; experiment: Aurora B kinase activity test, [γ-33P]-ATP filter membrane; type: biochemical; conditions: 40 minutes at room temperature, read-out: Kinase-inhibiting activity IC50 Aurora B
Procedure: as §6, §2
(2) Test for Aurora B Kinase Activity:
Aurora B kinase protein and the compounds were sequentially added to the following reaction system: 8 mM MOPS pH 7.0, 0.2 mM EDTA, 30 μM […], 10 mM magnesium acetate and [γ-^33P]-ATP (radioactive activity was approximately 500 cpm/pmol). Then the above reaction system was added with ATP to start the reaction, and incubated at room temperature for 40 minutes. Then the reaction was terminated by adding a 3% phosphoric acid solution. 10 μL was taken out from the reaction system, and then added dropwise to a P30 filtermat filter membrane, washed three times in 75 mM phosphoric acid solution for 5 minutes, and then washed once with methanol. After the filter was dried, count was performed by a liquid crystal scintillation counter.

KDR(VEGFR2) [6] = molecular target: T3, KDR(VEGFR2); experiment: KDR kinase activity test, [γ-33P]-ATP filter membrane; type: biochemical; conditions: 40 minutes at room temperature, read-out: Kinase-inhibiting activity IC50 KDR (VEGFR2)
Procedure: as §6, §2
(3) Test for KDR Kinase Activity:
KDR kinase protein and the compounds were sequentially added to the following reaction system: 8 mM MOPS pH 7.0, 0.2 mM EDTA, 0.33 mg/mL myelin basic protein, 10 mM magnesium acetate and [γ-^33P]-ATP (radioactive activity was approximately 500 cpm/pmol). Then the above reaction system was added with ATP to start the reaction, and incubated at room temperature for 40 minutes. Then the reaction was terminated by adding a 3% phosphoric acid solution. 10 μL was taken out from the reaction system, and then added dropwise to a P30 filtermat filter membrane, washed three times in a 75 mM phosphoric acid solution for 5 minutes, and then washed once with methanol. After the filter was dried, count was performed by a liquid crystal scintillation counter.

[7] = tested on: human acute granulocytic leukemia Kasumi-1 cells xenograft; experiment: In vivo pharmacodynamic study, subcutaneous xenograft tumor model; set-up: species or system CB17 SCID mice; conditions: for Tumor Weight: QD × 18, Kasumi-1 tumor-bearing mice; for Tumor Growth Inhibition rate (TGI): QD × 18, by tumor weight
Procedure: (§7) Test sample: crystal form I prepared in Example 17 (crystal form I of compound 29)
Animals, Cells, Reagents & Instruments: Kasumi-1 cells, derived from ATCC.
CB17 SCID mice, 6-8 weeks, female, available from Shanghai Lingchang Biotechnology Co., Ltd.
Kasumi-1 cells were cultured in vitro in a single layer, and culture conditions were as follows: RPMI1640 medium supplemented with 10% heat-inactivated fetal bovine serum and 1% penicillin-streptomycin double antibody, 37° C., and 5% CO2. Passage was achieved two to three times a week. When the cells were in the exponential growth phase, the cells were harvested, counted, and inoculated.
0.2 mL of cell suspension containing about 1×10^7 Kasumi-1 cells (cell suspended in 1:1 base RPMI 1640 medium and nutrient gel) was subcutaneously inoculated into the right back of female CB17 SCID mice. Grouping administration was started when the average tumor volume reached 100-150 mm^3. Grouping method: Animals were weighed prior to administration and tumor volume was measured. Grouping was performed according to the tumor volume, with 8 mice per group.
Health and death of the animals were monitored daily. Body weight was measured twice a week, and samples were collected after the last dose and the tumor weight was weighed.

[8] = PK evaluation in beagle dogs; type: in vivo
Procedure: as §7
(1) Administration to animals: All animals were fasted for more than 12 h before administration, and fed at 4 h after the administration. […] Beagle dogs were given intravenously 1 mg/kg of crystal form I of compound 29 (prescription: 10% DMA+20% (30% Solutol)+70% saline) in a single dose, and blood was collected at 0 h before administration and 0.083, 0.25, 0.50, 1.0, 2.0, 4.0, 6.0, 8.0, 12 and 24 h after administration. Beagle dogs were given orally 2 mg/kg of crystal form I of compound 29 (Prescription: 10% DMA+20% (30% Solutol)+70% saline) in a single dose, and blood was collected at 0 h before administration and at 0.25, 0.50, 1.0, 2.0, 4.0, 6.0, 8.0, 12, and 24 h after administration, and 200 μL blood was taken through a small saphenous vein, and placed in a dried EDTA-K2 test tube. (2) Preparation of plasma: The whole blood sample was separated by low-speed centrifugation (1800 g, 5 min, 4° C.) (the whole blood was collected and placed in an ice bath, and plasma separation should be completed within 30 min) to give plasma, and the separated plasma was stored in a refrigerator at […] for analysis.
The sample to be tested (−80° C.) was taken from the refrigerator, thawed naturally at room temperature and vortexed for 5 min; 20 μL of plasma sample was accurately aspirated into a 1.5 mL centrifuge tube; added with 200 μL of internal standard working solution at a concentration of 50 ng/mL, and mixed well; after vortexed for 5 min, the mixture was centrifuged for 5 min (12000 rpm); 50 μL of supernatant was accurately aspirated into 96-well plates pre-filled with 150 μL/well of water; vortexed for 5 min, LC-MS/MS determination was performed in an injection volume of 15 μL.
The concentration of test sample was output using Analyst 1.6.1 from AB SCIEX.

A549 Lung cancer cells = experiment: Cell proliferation, Cell Titer-Glo; type: cell-based; conditions: Homo sapiens, 72 hours, read-out: Cellular inhibitory activity IC50 A549
Procedure: (§8) Test method: The effect of compounds on cell proliferation of different cell lines was examined by Cell Titer-Glo method.
(§9) Each cell line was inoculated into a 96-well plate one day in advance, and after overnight incubation, drugs in different concentrations were added to a final concentration of 0-10000 nM, 3-5 folds dilution, for a total of 10 concentration points. After incubation for 72 hours, the mixture was added with Cell titer-Glo reagent equilibrated at room temperature, and shaken to incubation for 10 min, and then allowed to stand at room temperature for 2 min to stabilize the light signal. The multi-function microplate reader was used to read data from each well and analyze it.

[9] = tested on: BT-549 breast cancer cells; experiment: Cell proliferation, Cell Titer-Glo; type: cell-based; conditions: Homo sapiens, 72 hours, read-out: Cellular inhibitory activity IC50 BT-549
Procedure: as §8, §9

[10] = tested on: D4475 breast cancer cells; experiment: Cell proliferation, Cell Titer-Glo; type: cell-based; conditions: 72 hours, read-out: Cellular inhibitory activity IC50 D4475
Procedure: as §8, §9

[11] = tested on: MDA-MB-468 breast cancer cells; experiment: Cell proliferation, Cell Titer-Glo; type: cell-based; conditions: Homo sapiens, 72 hours, read-out: Cellular inhibitory activity IC50 MDA-MB-468
Procedure: as §8, §9

[12] = intravenously 1 mg/kg single dose

| IC50 (Aurora A [1]) [nM] | IC50 (Aurora B [2]) [nM] | IC50 (KDR(VEGFR2) [3]) [nM] | SMILES | other results |
| --- | --- | --- | --- | --- |
| 1.4 | 5.2 | 1.8 | Cc1[nH]nc2c1N=C(c1ccccc1Cl)c1cnc(N3CC4(COC4)C3)cc1N2 [Compound 48] |  |
| 2.1 | 5.8 | 1.8 | Cc1[nH]nc2c1N=C(c1ccccc1Cl)c1cnc(N3CCN(C)C(=O)C3)cc1N2 [Compound 43] |  |
|  |  |  | COc1cc2c(cn1)C(c1ccccc1Cl)=Nc1c(n[nH]c1C)N2 [Compound 3] | IC50 (Aurora A [4]): 4 nM; IC50 (Aurora B [5]): 8 nM; IC50 (KDR(VEGFR2) [6]): 876 nM |
|  |  |  | Cc1[nH]nc2c1N=C(c1ccccc1Cl)c1cnc(N3CCOCC3)cc1N2 [Crystal form I of compound 29, 4-(5-(2-chlorophenyl)-3-methyl-2,10-dihydropyrazolo[4,3-b]pyrido[4,3-e][1,4]diazepin-8-yl) morpholine] | Tumor Weight ([7]; 5 mg/kg po): 0.435 ± 0.091 g; Tumor Growth Inhibition rate (TGI) ([7]; 5 mg/kg po): 69.58%; Tumor Weight ([7]; 15 mg/kg po): 0.100 ± 0.014 g; Tumor Growth Inhibition rate (TGI) ([7]; 15 mg/kg po): 92.98%; inhibitory effect on the Kasumi-1 cell xenograft model ([7]; result in words): significant inhibitory effect; AUC(0-inf) ([8]; dog, plasma, iv, intravenously 1 mg/kg single dose, read-out: AUCinf iv): 4650 ng·h/mL; Tmax ([8]; dog, plasma, po, orally 2 mg/kg single dose): 2 h; AUC(0-inf) ([8]; dog, plasma, po, orally 2 mg/kg single dose, read-out: AUCinf po): 8600 ng·h/mL; Cl_obs iv [8, 12]: 3.67 mL/min/kg; Vz_obs iv [8, 12]: 2.35 L/kg; tz1/2 iv [8, 12]: 7.64 h; tZl1/2po ([8]; orally 2 mg/kg single dose): 6.87 h |
| 0.82 | 6.8 | 1.5 | Cc1[nH]nc2c1N=C(c1ccccc1Cl)c1cnc(N3CCN(C4CC4)CC3)cc1N2 [Compound 44] | IC50 (A549 Lung cancer cells): 358 nM; IC50 [9]: 249 nM; IC50 [10]: 101 nM; IC50 [11]: 984 nM |
| 18 | 16 | 4.2 | Cc1[nH]nc2c1N=C(c1ccccc1Cl)c1cnc(CN3CCNCC3)cc1N2 [Compound 38] |  |
|  |  |  | Cc1[nH]nc2c1N=C(c1ccccc1Cl)c1cnc(OC3CCOC3)cc1N2 (stereo not drawn) [Compound 4] | IC50 (Aurora A [4]): 4 nM; IC50 (Aurora B [5]): 3 nM; IC50 (KDR(VEGFR2) [6]): 1520 nM |
| 3 | 1.7 | 9.7 | Cc1[nH]nc2c1N=C(c1ccccc1Cl)c1cnc(N3CCN(C)[C@H](C)C3)cc1N2 [Compound 42] |  |
| 0.41 | 3.1 | 0.53 | Cc1[nH]nc2c1N=C(c1ccccc1Cl)c1cnc(N3CC4COCC4C3)cc1N2 (stereo not drawn) [Compound 46] | IC50 (A549 Lung cancer cells): 211 nM; IC50 [9]: 83 nM; IC50 [10]: 48 nM; IC50 [11]: 319 nM |
| 15 | 24 | 7.9 | Cc1[nH]nc2c1N=C(c1ccccc1Cl)c1cnc(N3C[C@@H](C)N(C)[C@@H](C)C3)cc1N2 [Compound 41] |  |
| 2.7 | 11 | 2.9 | Cc1[nH]nc2c1N=C(c1ccccc1Cl)c1cnc(N3CCO[C@H](C)C3)cc1N2 (stereo in doubt) [Compound 40] |  |
| 1 | 4.7 | 0.3 | Cc1[nH]nc2c1N=C(c1ccccc1Cl)c1cnc(N3CC4CC3CO4)cc1N2 (stereo not drawn) [Compound 45] | IC50 (A549 Lung cancer cells): 507 nM; IC50 [9]: 186 nM; IC50 [10]: 171 nM; IC50 [11]: 491 nM |
| 5.4 | 8.8 | 1.7 | Cc1[nH]nc2c1N=C(c1ccccc1Cl)c1cnc(N3CCNCC3)cc1N2 [Compound 37] |  |
